Laboratory results as given in US5292733A, “Cephalosporin compounds” (Lucky Limited, priority 1991, dated 1994).
Converted amounts (≈) assume the structure as drawn.

Key:
Test in all cases: Antibacterial activity MIC, two-fold agar dilution
Assay type in all cases: cell-based
[1] = test system: Salmonella typhimurium ATCC 14028; conditions: Salmonella enterica; Salmonella typhimurium ATCC 14028; Muller-Hinton agar, 37° C., 20 hours; read-out: Antibacterial Activity MIC
Outline: (§1)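 The minimum inhibitory concentration was measured on Muller-Hinton agar plates holding halving compound concentrations. Plates received a 2 μl spot of strain suspension at 10^7 CFU per ml and were incubated for 20 hours at 37° C.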

[2] = test system: Enterobacter cloacae ATCC 27508; conditions: ATCC27508; Enterobacter cloacae ATCC 27508; Muller-Hinton agar, 37° C., 20 hours; read-out: Antibacterial Activity MIC
Outline: as §1

[3] = test system: Bacillus megaterium ATCC 9885; conditions: Priestia megaterium, ATCC9885; Bacillus megaterium ATCC 9885; Muller-Hinton agar, 37° C., 20 hours; read-out: Antibacterial Activity MIC
Outline: as §1

[4] = test system: Morganella morganii ATCC 8076h; conditions: ATCC8076H, Muller-Hinton agar, 37° C., 20 hours
Outline: as §1

[5] = test system: Proteus mirabilis ATCC 25933; conditions: ATCC25933; Proteus mirabilis ATCC 25933; Muller-Hinton agar, 37° C., 20 hours; read-out: Antibacterial Activity MIC
Outline: as §1

[6] = test system: Escherichia coli ATCC 25922; conditions: ATCC25922, Muller-Hinton agar, 37° C., 20 hours
Outline: as §1

[7] = test system: Serratia marcescens ATCC 27117; conditions: ATCC27117; Serratia marcescens ATCC 27117; Muller-Hinton agar, 37° C., 20 hours; read-out: Antibacterial Activity MIC
Outline: as §1

[8] = test system: Pseudomonas aeruginosa ATCC 27853; conditions: ATCC27853; Pseudomonas aeruginosa ATCC 27853; Muller-Hinton agar, 37° C., 20 hours; read-out: Antibacterial Activity MIC
Outline: as §1

[9] = test system: Staphylococcus aureus ATCC 10537; conditions: ATCC10537; Staphylococcus aureus ATCC 10537; Muller-Hinton agar, 37° C., 20 hours; read-out: Antibacterial Activity MIC
Outline: as §1

[10] = test system: Citrobacter freundii ATCC 8090; conditions: ATCC8090; Citrobacter freundii ATCC 8090; Muller-Hinton agar, 37° C., 20 hours; read-out: Antibacterial Activity MIC
Outline: as §1

[11] = test system: Proteus vulgaris ATCC 6059; conditions: ATCC6059; Proteus vulgaris ATCC 6059; Muller-Hinton agar, 37° C., 20 hours; read-out: Antibacterial Activity MIC
Outline: as §1

[12] = test system: Shigella flexneri ATCC 11836; conditions: ATCC11836, Muller-Hinton agar, 37° C., 20 hours
Outline: as §1

[13] = test system: Acinetobacter calcoaceticus ATCC 15473; conditions: ATCC15473; Acinetobacter calcoaceticus ATCC 15473; Muller-Hinton agar, 37° C., 20 hours; read-out: Antibacterial Activity MIC
Outline: as §1

[14] = test system: Micrococcus luteus ATCC 9341; conditions: ATCC9341; Micrococcus luteus ATCC 9341; Muller-Hinton agar, 37° C., 20 hours; read-out: Antibacterial Activity MIC
Outline: as §1

[15] = test system: Streptococcus faecalis ATCC 29212; conditions: Enterococcus faecalis, ATCC29212; Streptococcus faecalis ATCC 29212; Muller-Hinton agar, 37° C., 20 hours; read-out: Antibacterial Activity MIC
Outline: as §1

[16] = test system: Bacillus cereus ATCC 11778; conditions: ATCC11778; Bacillus cereus ATCC 11778; Muller-Hinton agar, 37° C., 20 hours; read-out: Antibacterial Activity MIC
Outline: as §1

[17] = test system: Staphylococcus aureus ATCC 6538p; conditions: ATCC6538P; Staphylococcus aureus ATCC 6538p; Muller-Hinton agar, 37° C., 20 hours; read-out: Antibacterial Activity MIC
Outline: as §1

[18] = test system: Klebsiella pneumoniae ATCC 10031; conditions: ATCC10031; Klebsiella pneumoniae ATCC 10031; Muller-Hinton agar, 37° C., 20 hours; read-out: Antibacterial Activity MIC
Outline: as §1

[19] = test system: Escherichia coli ATCC 10536; conditions: ATCC10536, Muller-Hinton agar, 37° C., 20 hours
Outline: as §1

[20] = test system: Pseudomonas aeruginosa ATCC 25619; conditions: ATCC25619; Pseudomonas aeruginosa ATCC 25619; Muller-Hinton agar, 37° C., 20 hours; read-out: Antibacterial Activity MIC
Outline: as §1

[21] = test system: Providencia rettgeri ATCC 9250; conditions: ATCC9250, Muller-Hinton agar, 37° C., 20 hours
Outline: as §1

[22] = test system: Pseudomonas aeruginosa ATCC 10145; conditions: ATCC10145; Pseudomonas aeruginosa ATCC 10145; Muller-Hinton agar, 37° C., 20 hours; read-out: Antibacterial Activity MIC
Outline: as §1

[23] = test system: Enterobacter aerogenes ATCC 29751; conditions: Klebsiella aerogenes, ATCC29751; Enterobacter aerogenes ATCC 29751; Muller-Hinton agar, 37° C., 20 hours; read-out: Antibacterial Activity MIC
Outline: as §1

[24] = test system: Shigella sonnei ATCC 11060; conditions: ATCC11060, Muller-Hinton agar, 37° C., 20 hours
Outline: as §1

[25] = test system: Staphylococcus epidermidis ATCC 12228; conditions: ATCC12228; Staphylococcus epidermidis ATCC 12228; Muller-Hinton agar, 37° C., 20 hours; read-out: Antibacterial Activity MIC
Outline: as §1

Row | SMILES | MIC [1] | MIC [2] | MIC [3] | MIC [4] | MIC [5] | MIC [6] | MIC [7] | MIC [8] | MIC [9] | MIC [10] | MIC [11] | MIC [12] | MIC [13] | MIC [14] | MIC [15] | MIC [16] | MIC [17] | MIC [18] | MIC [19] | MIC [20] | further results
1 | CO/N=C(\C(=O)N[C@@H]1C(=O)N2C(C(=O)[O-])=C(CSc3cc(N)[n+](C)c(N)n3)CS[C@H]12)c1csc(N)n1 [Compound I-21, (6R,7R)-7-[(Z)-2-(2-aminothiazol-4-yl)-2-(methoxyimino)acetamido]-3-(2,6-diamino-1-methylpyrimidinium-4-yl)thiomethyl-3-cephem-4-carboxylate] | 0.13 µg/mL (≈ 0.236 µM) | ≤ 0.008 µg/mL | 0.13 µg/mL (≈ 0.236 µM) | ≤ 0.008 µg/mL | 0.5 µg/mL (≈ 0.906 µM) | 0.063 µg/mL (≈ 0.114 µM) | 0.25 µg/mL (≈ 0.453 µM) | 2 µg/mL (≈ 3.63 µM) | 0.5 µg/mL (≈ 0.906 µM) | 0.031 µg/mL (≈ 0.0562 µM) | 0.5 µg/mL (≈ 0.906 µM) | 0.016 µg/mL (≈ 0.029 µM) | 8 µg/mL (≈ 14.5 µM) | 0.063 µg/mL (≈ 0.114 µM) | 32 µg/mL (≈ 58 µM) | 128 µg/mL (≈ 232 µM) | 0.5 µg/mL (≈ 0.906 µM) | ≤ 0.008 µg/mL | 0.063 µg/mL (≈ 0.114 µM) | 1 µg/mL (≈ 1.81 µM) | MIC [21]: ≤ 0.008 µg/mL; MIC [22]: 16 µg/mL (≈ 29 µM); MIC [23]: 0.25 µg/mL (≈ 0.453 µM); MIC [24]: 0.13 µg/mL (≈ 0.236 µM); MIC [25]: 0.25 µg/mL (≈ 0.453 µM)
2 | CC[n+]1c(N)cc(SCC2=C(C(=O)[O-])N3C(=O)[C@@H](NC(=O)/C(=N\OC)c4csc(N)n4)[C@H]3SC2)nc1N [Compound I-22, (6R,7)-7-[(Z)-2-(2-aminothiazol-4-yl)-2-(methoxyimino)acetamido]-3-(2,6-diamino-1-ethylpyrimidinium-4-yl)thiomethyl-3-cephem-4-carboxylate] | 0.13 µg/mL (≈ 0.23 µM) | ≤ 0.008 µg/mL | 0.25 µg/mL (≈ 0.442 µM) | ≤ 0.008 µg/mL | 0.25 µg/mL (≈ 0.442 µM) | 0.063 µg/mL (≈ 0.111 µM) | 0.25 µg/mL (≈ 0.442 µM) | 2 µg/mL (≈ 3.54 µM) | 0.5 µg/mL (≈ 0.884 µM) | 0.25 µg/mL (≈ 0.442 µM) | 0.25 µg/mL (≈ 0.442 µM) | 0.063 µg/mL (≈ 0.111 µM) | 8 µg/mL (≈ 14.1 µM) | 0.031 µg/mL (≈ 0.0548 µM) | 8 µg/mL (≈ 14.1 µM) | 64 µg/mL (≈ 113 µM) | 0.25 µg/mL (≈ 0.442 µM) | ≤ 0.008 µg/mL | 0.063 µg/mL (≈ 0.111 µM) | 1 µg/mL (≈ 1.77 µM) | MIC [21]: ≤ 0.008 µg/mL; MIC [22]: 8 µg/mL (≈ 14.1 µM); MIC [23]: 0.25 µg/mL (≈ 0.442 µM); MIC [24]: 0.031 µg/mL (≈ 0.0548 µM); MIC [25]: 0.25 µg/mL (≈ 0.442 µM)
3 | C[n+]1c(N)nc(N)nc1SCC1=C(C(=O)[O-])N2C(=O)C(NC(=O)/C(=N\OC(C)(C)C(=O)O)c3csc(N)n3)[C@H]2SC1 (stereo partly drawn) [Compound I-23, 7-[(Z)-2-(2-aminothiazol-4-yl)-2-(2-carboxyprop-2-oxyimino)acetamido]-3-(4,6-diamino-1-methyl-1,3,5-triazinium-2-yl)thiomethyl-3-cephem-4-carboxylate] | 0.13 µg/mL (≈ 0.208 µM) | 0.031 µg/mL (≈ 0.0496 µM) | 0.5 µg/mL (≈ 0.8 µM) | ≤ 0.008 µg/mL | 0.063 µg/mL (≈ 0.101 µM) | 0.063 µg/mL (≈ 0.101 µM) | 0.13 µg/mL (≈ 0.208 µM) | 1 µg/mL (≈ 1.6 µM) | 2 µg/mL (≈ 3.2 µM) | 0.13 µg/mL (≈ 0.208 µM) | 0.063 µg/mL (≈ 0.101 µM) | 0.063 µg/mL (≈ 0.101 µM) | 4 µg/mL (≈ 6.4 µM) | 1 µg/mL (≈ 1.6 µM) | > 128 µg/mL | 128 µg/mL (≈ 205 µM) | 8 µg/mL (≈ 12.8 µM) | 0.063 µg/mL (≈ 0.101 µM) | 0.063 µg/mL (≈ 0.101 µM) | 1 µg/mL (≈ 1.6 µM) | MIC [21]: ≤ 0.008 µg/mL; MIC [22]: 2 µg/mL (≈ 3.2 µM); MIC [23]: 2 µg/mL (≈ 3.2 µM); MIC [24]: 0.063 µg/mL (≈ 0.101 µM); MIC [25]: 2 µg/mL (≈ 3.2 µM)
